Data: patent publication EP4700027A1, “CRYSTALLINE FORM OF NITROGEN-CONTAINING TETRACYCLIC COMPOUND AND PREPARATION METHOD THEREFOR” (Jiangsu Hengrui Pharmaceuticals Co., Ltd., priority 2023, dated 2024)

Columns and labels:
H358 cells = assay: H358 cell proliferation assay (CellTiter-Glo); format: cell-based; conditions: Homo sapiens, NCI-H358; inhibitory activity against H358 cell proliferation, 120 h incubation
Experimental: The inhibitory activity of the compound of the present disclosure against H358 cell proliferation was measured. Below is a brief description of the experimental method: H358 cells (ATCC, CRL-5807) were cultured in RPMI1640 medium (Hyclone, SH30809.01) containing 10% fetal bovine serum (Corning, 35-076-CV) (i.e., complete medium). On the first day of the experiment, H358 cells were seeded into a 96-well plate at a density of 1200 cells/well using complete medium, with 100 µL of cell suspension per well, and the plate was incubated overnight in a 5% CO2 cell incubator at 37 °C. On the second day, the test compound, prepared in complete medium and serially diluted, was added at 10 µL/well. The final concentrations of the compound were 9 concentration points obtained by a 5-fold serial dilution from 10 µM. A blank control containing 0.5% DMSO was set up. The plate was incubated for 120 h in a 5% CO2 cell incubator at 37 °C. On the seventh day, the 96-well cell plate was removed from the incubator, and Cell Titer-Glo® Luminescent Cell Viability Assay (Promega, G7573) was added at 50 µL/well. After the plate was left to stand at room temperature for 10 min, the luminescence signal values were measured using a multifunctional microplate reader (PerkinElmer, EnVision® 2105), and the IC50 value for the inhibitory activity of the compound was calculated using Graphpad Prism software. Table 1. […]

MIA PaCa-2 cells = assay: MIA PaCa-2 cell proliferation assay (CellTiter-Glo); format: cell-based; conditions: Homo sapiens; inhibitory activity against MIA PaCa-2 cell proliferation, 72 h incubation
Experimental: The inhibitory activity of the compound of the present disclosure against MIA PaCa-2 cell proliferation was measured. Below is a brief description of the experimental method: MIA PaCa-2 cells (ATCC, CRL-1420) were cultured in DMEM/HIGH GLUCOSE medium (GE, SH30243.01) containing 10% fetal bovine serum (Corning, 35-076-CV) and 2.5% horse serum (Beyotime Biological Tech., C0262) (i.e., complete medium). On the first day of the experiment, MIA PaCa-2 cells were seeded into a 96-well plate at a density of 500 cells/well using complete medium, with 90 µL of cell suspension per well, and the plate was incubated overnight in a 5% CO2 cell incubator at 37 °C. On the second day, the test compound, prepared in complete medium and serially diluted, was added at 10 µL/well. The final concentrations of the compound were 9 concentration points obtained by a 5-fold serial dilution from 10 µM. A blank control containing 0.5% DMSO was set up. The plate was incubated for 72 h in a 5% CO2 cell incubator at 37 °C. […] After the plate was left to stand at room temperature for 10 min, the luminescence signal values were measured using a multifunctional microplate reader (PerkinElmer, EnVision2015). The IC50 value for the inhibitory activity of the compound was calculated using Graphpad Prism software. […]

[1] = Dynamic vapor sorption (DVS) hygroscopicity testing; format: physicochemical; conditions: for desorption process of the sample versus its adsorption process: humidity changing from 0% to 95% RH
Source text: According to the description of hygroscopicity characteristics and the definitions of hygroscopic weight gains in "General Rule 9103, Guidelines for Hygroscopicity Trials for Pharmaceuticals" in the Chinese Pharmacopoeia, Volume IV, 2015 Edition, • deliquescent: sufficient water is absorbed to form a liquid; • extremely hygroscopic: the hygroscopic weight gain is not less than 15%; • hygroscopic: the hygroscopic weight gain is less than 15% but not less than 2%; • slightly hygroscopic: the hygroscopic weight gain is less than 2% but not less than 0.2%; nonhygroscopic or practically nonhygroscopic: the hygroscopic weight gain is less than 0.2%.
DVS refers to dynamic vapor sorption: The analysis was performed using SMS DVS Advantage; at 25 °C, the humidity was changed as follows: 50%-95%-0%-95%-50%, in steps of 10% (5% for the last step) (specific humidity ranges are shown in corresponding patterns, and those listed here were used in most cases); the criterion was dm/dt being not greater than 0.002%.

[2] = Influencing factor stability study on crystal forms (light, high temperature, high humidity, 30 days); format: physicochemical
[3] = accelerated experimental conditions (70% RH)
[4] = normal storage conditions (25 °C and 60% RH)
[5] = Light exposure (4500 Lux), 7 days
[6] = Light exposure (4500 Lux), 14 days
[7] = Light exposure (4500 Lux), 30 days
[8] = Light exposure (4500 Lux), 5 days
[9] = Light exposure (4500 Lux), 10 days

Structure (SMILES): C=CC(=O)N1CCN2C(=O)c3cc(F)c(-c4ccc(F)c5sc(N)c(C#N)c45)c4c(Cl)nn(c34)CC[C@H]2C1 (atropisomer, axis not shown) [Compound 1, (S)-4-((S)-10-acryloyl-4-chloro-2-fluoro-14-oxo-8,8a,9,10,11,12-hexahydro-7H,14H-pyrazino[1',2':5,6][1,5]diazocino[3,2,1-hi]indazol-3-yl)-2-amino-7-fluorobenzo[b]thiophene-3-carbonitrile]
- IC50 (H358 cells): 0.74 nM
- IC50 (MIA PaCa-2 cells): 0.28 nM

Structure (SMILES): C=CC(=O)N1CCN2C(=O)c3cc(F)c(-c4ccc(F)c5sc(N)c(C#N)c45)c4c(Cl)nn(c34)CC[C@H]2C1 [crystal form G]
- hygroscopic weight gain [1, 3]: about 1.21%
- crystal form re-identified after DVS testing [1]: did not change
- hygroscopic weight gain ([1]; extreme conditions (90% RH)): about 1.60%
- desorption process of the sample versus its adsorption process [1]: substantially overlapped
- hygroscopic weight gain [1, 4]: about 1.04%
- Color and state ([2]; 40 °C, 7 days): Off-white solid
- Crystal form ([2]; 40 °C, 7 days): Did not change
- Purity (%) ([2]; 40 °C, 7 days): 98.2%
- Color and state ([2]; 40 °C, 14 days): Off-white solid
- Crystal form ([2]; 40 °C, 14 days): Did not change
- Purity (%) ([2]; 40 °C, 14 days): 97.8%
- Color and state ([2]; 40 °C, 30 days): Off-white solid
- Crystal form ([2]; 40 °C, 30 days): Did not change
- Purity (%) ([2]; 40 °C, 30 days): 97.7%
- Color and state ([2]; 60 °C, 7 days): Off-white solid
- Crystal form ([2]; 60 °C, 7 days): Did not change
- Purity (%) ([2]; 60 °C, 7 days): 98.3%
- Color and state ([2]; 60 °C, 14 days): Off-white solid
- Crystal form ([2]; 60 °C, 14 days): Did not change
- Purity (%) ([2]; 60 °C, 14 days): 98.1%
- Color and state ([2]; 60 °C, 30 days): Off-white solid
- Crystal form ([2]; 60 °C, 30 days): Did not change
- Purity (%) ([2]; 60 °C, 30 days): 98.1%
- Color and state ([2]; 75% RH, 7 days): Off-white solid
- Crystal form ([2]; 75% RH, 7 days): Did not change
- Purity (%) ([2]; 75% RH, 7 days): 98.5%
- Color and state ([2]; 75% RH, 14 days): Off-white solid
- Crystal form ([2]; 75% RH, 14 days): Did not change
- Purity (%) ([2]; 75% RH, 14 days): 98.5%
- Color and state ([2]; 75% RH, 30 days): Off-white solid
- Crystal form ([2]; 75% RH, 30 days): Did not change
- Purity (%) ([2]; 75% RH, 30 days): 98.5%
- Color and state ([2]; 92.5% RH, 7 days): Off-white solid
- Crystal form ([2]; 92.5% RH, 7 days): Did not change
- Purity (%) ([2]; 92.5% RH, 7 days): 98.5%
- Color and state ([2]; 92.5% RH, 14 days): Off-white solid
- Crystal form ([2]; 92.5% RH, 14 days): Did not change
- Purity (%) ([2]; 92.5% RH, 14 days): 98.5%
- Color and state ([2]; 92.5% RH, 30 days): Off-white solid
- Crystal form ([2]; 92.5% RH, 30 days): Did not change
- Purity (%) ([2]; 92.5% RH, 30 days): 98.5%
- Color and state ([2]; Initial, 0 days): Off-white solid
- Crystal form ([2]; Initial, 0 days): Crystal form G
- Purity (%) ([2]; Initial, 0 days): 98.5%
- Color and state [2, 5]: Off-white solid
- Crystal form [2, 5]: Did not change
- Purity (%) [2, 5]: 98.5%
- Color and state [2, 6]: Off-white solid
- Crystal form [2, 6]: Did not change
- Purity (%) [2, 6]: 98.4%
- Color and state [2, 7]: Off-white solid
- Crystal form [2, 7]: Did not change
- Purity (%) [2, 7]: 98.3%

Structure (SMILES): C=CC(=O)N1CCN2C(=O)c3cc(F)c(-c4ccc(F)c5sc(N)c(C#N)c45)c4c(Cl)nn(c34)CC[C@H]2C1 [crystal form F]
- hygroscopic weight gain [1, 3]: about 6.44%
- crystal form re-identified after DVS testing [1]: did not change
- hygroscopic weight gain ([1]; extreme conditions (90% RH)): about 6.65%
- desorption process of the sample versus its adsorption process [1]: did not overlap
- hygroscopic weight gain [1, 4]: about 6.35%
- Color and state ([2]; 40 °C, 5 days): Off-white solid
- Crystal form ([2]; 40 °C, 5 days): Did not change
- Purity (%) ([2]; 40 °C, 5 days): 97.8%
- Color and state ([2]; 40 °C, 10 days): Off-white solid
- Crystal form ([2]; 40 °C, 10 days): Did not change
- Purity (%) ([2]; 40 °C, 10 days): 97.5%
- Color and state ([2]; 40 °C, 30 days): Off-white solid
- Crystal form ([2]; 40 °C, 30 days): Did not change
- Purity (%) ([2]; 40 °C, 30 days): 96.7%
- Color and state ([2]; 60 °C, 5 days): Off-white solid
- Crystal form ([2]; 60 °C, 5 days): Did not change
- Purity (%) ([2]; 60 °C, 5 days): 97.8%
- Color and state ([2]; 60 °C, 10 days): Off-white solid
- Crystal form ([2]; 60 °C, 10 days): Did not change
- Purity (%) ([2]; 60 °C, 10 days): 97.7%
- Color and state ([2]; 60 °C, 30 days): Off-white solid
- Crystal form ([2]; 60 °C, 30 days): Did not change
- Purity (%) ([2]; 60 °C, 30 days): 97.3%
- Color and state ([2]; 75% RH, 5 days): Off-white solid
- Crystal form ([2]; 75% RH, 5 days): Did not change
- Purity (%) ([2]; 75% RH, 5 days): 97.9%
- Color and state ([2]; 75% RH, 10 days): Off-white solid
- Crystal form ([2]; 75% RH, 10 days): Did not change
- Purity (%) ([2]; 75% RH, 10 days): 97.9%
- Color and state ([2]; 75% RH, 30 days): Off-white solid
- Crystal form ([2]; 75% RH, 30 days): Did not change
- Purity (%) ([2]; 75% RH, 30 days): 97.9%
- Color and state ([2]; 92.5% RH, 5 days): Off-white solid
- Crystal form ([2]; 92.5% RH, 5 days): Did not change
- Purity (%) ([2]; 92.5% RH, 5 days): 97.9%
- Color and state ([2]; 92.5% RH, 10 days): Off-white solid
- Crystal form ([2]; 92.5% RH, 10 days): Did not change
- Purity (%) ([2]; 92.5% RH, 10 days): 97.9%
- Color and state ([2]; 92.5% RH, 30 days): Off-white solid
- Crystal form ([2]; 92.5% RH, 30 days): Did not change
- Purity (%) ([2]; 92.5% RH, 30 days): 97.9%
- Color and state ([2]; Initial, 0 days): Off-white solid
- Crystal form ([2]; Initial, 0 days): Crystal form F
- Purity (%) ([2]; Initial, 0 days): 97.9%
- Color and state [2, 8]: Off-white solid
- Crystal form [2, 8]: Did not change
- Purity (%) [2, 8]: 97.8%
- Color and state [2, 9]: Off-white solid
- Crystal form [2, 9]: Did not change
- Purity (%) [2, 9]: 97.8%
- Color and state [2, 7]: Off-white solid
- Crystal form [2, 7]: Did not change
- Purity (%) [2, 7]: 97.7%
